Experimental data reported in PubChem BioAssay AID1963443 (Molecular Pharmacology Branch, DTP, NCI, 2024).

Tested on: MDA-MB-231 complex spheroids, growth inhibition
Assay: Anticancer human tumor MDA-MB-231 cell line growth inhibition [Asc];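 further: spheroids exposed to compounds for 7 days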
Conditions: for IC50: curve of first compound; for viability, T/C: stronger effect = lower value
Procedure, shortened: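 Complex solid-tumor spheroids incorporating human endothelial and mesenchymal stem cells received single agents or combinations over half-log dilution ranges anchored to clinical Cmax.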

[1] = second compound 0.1 µM, first compound 0.00316 µM
[2] = second compound 0.1 µM, first compound 0.01 µM
[3] = second compound 0.1 µM, first compound 0.0316 µM
[4] = second compound 0.1 µM, first compound 0.1 µM
[5] = second compound 0.316 µM, first compound 0.00316 µM
[6] = second compound 0.316 µM, first compound 0.01 µM
[7] = second compound 0.316 µM, first compound 0.0316 µM
[8] = second compound 0.316 µM, first compound 0.1 µM
[9] = second compound 1 µM, first compound 0.00316 µM
[10] = second compound 1 µM, first compound 0.01 µM
[11] = second compound 1 µM, first compound 0.0316 µM
[12] = second compound 1 µM, first compound 0.1 µM
[13] = second compound 3.16 µM, first compound 0.00316 µM
[14] = second compound 3.16 µM, first compound 0.01 µM
[15] = second compound 3.16 µM, first compound 0.0316 µM
[16] = second compound 3.16 µM, first compound 0.1 µM
[17] = second compound 10 µM, first compound 0.00316 µM
[18] = second compound 10 µM, first compound 0.01 µM
[19] = second compound 10 µM, first compound 0.0316 µM
[20] = second compound 10 µM, first compound 0.1 µM

Question: Which results are given for `NC(=O)C(=Cn1cnc(-c2cc(C(F)(F)F)cc(C(F)(F)F)c2)n1)c1cncnc1` + Cc1c(S(C)(=O)=O)c(-c2cc(F)cc(N3CCN(c4ccc(NS(=O)(=O)c5ccc(NC(CCN6CCC(C(=O)OCCCP(=O)(O)O)CC6)CSc6ccccc6)c(S(=O)(=O)C(F)(F)F)c5)cc4)CC3)c2)c(-c2ccc(Cl)cc2)n1C(C)C?
Answer: IC50 (second compound 0.1 µM): 63.4 nM; IC50 (second compound 0.316 µM): 56.5 nM; IC50 (second compound 1 µM): 50.8 nM; IC50 (second compound 3.16 µM): 38.8 nM; IC50 (second compound 10 µM): 43.3 nM; viability, T/C (second compound 0.1 µM, first compound 0.000949 µM): 100%; viability, T/C (second compound 0.1 µM, first compound 0.003 µM): 101%; viability, T/C (second compound 0.1 µM, first compound 0.00949 µM): 86.3%; viability, T/C (second compound 0.1 µM, first compound 0.03 µM): 62.6%; viability, T/C (second compound 0.1 µM, first compound 0.0949 µM): 43.7%; viability, T/C (second compound 0.1 µM, first compound 0.3 µM): 6.26%; viability, T/C (second compound 0.316 µM, first compound 0.000949 µM): 111%; viability, T/C (second compound 0.316 µM, first compound 0.003 µM): 103%; viability, T/C (second compound 0.316 µM, first compound 0.00949 µM): 89.8%; viability, T/C (second compound 0.316 µM, first compound 0.03 µM): 64.9%; viability, T/C (second compound 0.316 µM, first compound 0.0949 µM): 37.4%; viability, T/C (second compound 0.316 µM, first compound 0.3 µM): 4.18%; viability, T/C (second compound 1 µM, first compound 0.000949 µM): 104%; viability, T/C (second compound 1 µM, first compound 0.003 µM): 103%; viability, T/C (second compound 1 µM, first compound 0.00949 µM): 88.5%; viability, T/C (second compound 1 µM, first compound 0.03 µM): 67.4%; viability, T/C (second compound 1 µM, first compound 0.0949 µM): 30.2%; viability, T/C (second compound 1 µM, first compound 0.3 µM): 2.94%; viability, T/C (second compound 3.16 µM, first compound 0.000949 µM): 98.1%; viability, T/C (second compound 3.16 µM, first compound 0.003 µM): 93.7%; viability, T/C (second compound 3.16 µM, first compound 0.00949 µM): 84.4%; viability, T/C (second compound 3.16 µM, first compound 0.03 µM): 60%; viability, T/C (second compound 3.16 µM, first compound 0.0949 µM): 19.2%; viability, T/C (second compound 3.16 µM, first compound 0.3 µM): 2.31%; viability, T/C (second compound 10 µM, first compound 0.000949 µM): 105%; viability, T/C (second compound 10 µM, first compound 0.003 µM): 103%; viability, T/C (second compound 10 µM, first compound 0.00949 µM): 97.3%; viability, T/C (second compound 10 µM, first compound 0.03 µM): 68%; viability, T/C (second compound 10 µM, first compound 0.0949 µM): 12.1%; viability, T/C (second compound 10 µM, first compound 0.3 µM): 0.73%

Question: How did the IC50 (second compound 0.1 µM) turn out when `NC1CCC(NC2CC2c2ccccc2)CC1` (stereo not given) + Cc1c(S(C)(=O)=O)c(-c2cc(F)cc(N3CCN(c4ccc(NS(=O)(=O)c5ccc(NC(CCN6CCC(C(=O)OCCCP(=O)(O)O)CC6)CSc6ccccc6)c(S(=O)(=O)C(F)(F)F)c5)cc4)CC3)c2)c(-c2ccc(Cl)cc2)n1C(C)C was run?
Answer: > 100 nM

Question: And the IC50 (second compound 0.316 µM)?
Answer: > 100 nM

Question: What about the IC50 (second compound 1 µM) of the same molecule?
Answer: > 100 nM

Question: And the IC50 (second compound 3.16 µM)?
Answer: > 100 nM

Question: What about the IC50 (second compound 10 µM) of the same molecule?
Answer: > 100 nM

Question: What about the viability, T/C (second compound 0.1 µM, first compound 0.000316 µM) of the same molecule?
Answer: 102%

Question: And the viability, T/C (second compound 0.1 µM, first compound 0.001 µM)?
Answer: 98.7%

Question: What about the viability, T/C [1] of the same molecule?
Answer: 104%

Question: What about the viability, T/C [2] of the same molecule?
Answer: 99.1%

Question: What about the viability, T/C [3] of the same molecule?
Answer: 92.5%

Question: What about the viability, T/C [4] of the same molecule?
Answer: 103%

Question: What about the viability, T/C (second compound 0.316 µM, first compound 0.000316 µM) of the same molecule?
Answer: 104%

Question: What about the viability, T/C (second compound 0.316 µM, first compound 0.001 µM) of the same molecule?
Answer: 103%

Question: And the viability, T/C [5]?
Answer: 106%

Question: And the viability, T/C [6]?
Answer: 104%

Question: What about the viability, T/C [7] of the same molecule?
Answer: 105%

Question: And the viability, T/C [8]?
Answer: 103%

Question: What about the viability, T/C (second compound 1 µM, first compound 0.000316 µM) of the same molecule?
Answer: 96.1%

Question: And the viability, T/C (second compound 1 µM, first compound 0.001 µM)?
Answer: 106%

Question: What about the viability, T/C [9] of the same molecule?
Answer: 103%

Question: And the viability, T/C [10]?
Answer: 108%

Question: What about the viability, T/C [11] of the same molecule?
Answer: 105%

Question: And the viability, T/C [12]?
Answer: 102%

Question: What about the viability, T/C (second compound 3.16 µM, first compound 0.000316 µM) of the same molecule?
Answer: 93.3%

Question: What about the viability, T/C (second compound 3.16 µM, first compound 0.001 µM) of the same molecule?
Answer: 94.2%

Question: What about the viability, T/C [13] of the same molecule?
Answer: 99.5%

Question: What about the viability, T/C [14] of the same molecule?
Answer: 90.8%

Question: What about the viability, T/C [15] of the same molecule?
Answer: 93.2%

Question: And the viability, T/C [16]?
Answer: 94.7%

Question: And the viability, T/C (second compound 10 µM, first compound 0.000316 µM)?
Answer: 101%

Question: And the viability, T/C (second compound 10 µM, first compound 0.001 µM)?
Answer: 100%

Question: What about the viability, T/C [17] of the same molecule?
Answer: 101%

Question: And the viability, T/C [18]?
Answer: 101%

Question: And the viability, T/C [19]?
Answer: 96.6%

Question: And the viability, T/C [20]?
Answer: 94.1%

Question: With `O=C(c1ccc(F)c(F)c1Nc1ccc(I)cc1F)N1CC(O)([C@@H]2CCCCN2)C1` + Cc1c(S(C)(=O)=O)c(-c2cc(F)cc(N3CCN(c4ccc(NS(=O)(=O)c5ccc(NC(CCN6CCC(C(=O)OCCCP(=O)(O)O)CC6)CSc6ccccc6)c(S(=O)(=O)C(F)(F)F)c5)cc4)CC3)c2)c(-c2ccc(Cl)cc2)n1C(C)C as the molecule, how does the IC50 (second compound 0.1 µM) read?
Answer: 76.3 nM

Question: What about the IC50 (second compound 0.316 µM) of the same molecule?
Answer: 103 nM

Question: What about the IC50 (second compound 1 µM) of the same molecule?
Answer: 71.3 nM

Question: And the IC50 (second compound 3.16 µM)?
Answer: 117 nM

Question: And the IC50 (second compound 10 µM)?
Answer: 116 nM

Question: What about the viability, T/C [1] of the same molecule?
Answer: 87.8%

Question: What about the viability, T/C [2] of the same molecule?
Answer: 68.8%

Question: What about the viability, T/C [3] of the same molecule?
Answer: 60.6%

Question: What about the viability, T/C [4] of the same molecule?
Answer: 51.9%

Question: What about the viability, T/C (second compound 0.1 µM, first compound 0.316 µM) of the same molecule?
Answer: 24.9%

Question: And the viability, T/C (second compound 0.1 µM, first compound 1 µM)?
Answer: 1.38%

Question: And the viability, T/C [5]?
Answer: 86.3%

Question: What about the viability, T/C [6] of the same molecule?
Answer: 61.9%

Question: And the viability, T/C [7]?
Answer: 64.7%

Question: And the viability, T/C [8]?
Answer: 54.8%

Question: What about the viability, T/C (second compound 0.316 µM, first compound 0.316 µM) of the same molecule?
Answer: 14.6%

Question: What about the viability, T/C (second compound 0.316 µM, first compound 1 µM) of the same molecule?
Answer: 0.96%

Question: What about the viability, T/C [9] of the same molecule?
Answer: 96.5%

Question: What about the viability, T/C [10] of the same molecule?
Answer: 59.5%

Question: And the viability, T/C [11]?
Answer: 66.7%

Question: What about the viability, T/C [12] of the same molecule?
Answer: 60.3%

Question: What about the viability, T/C (second compound 1 µM, first compound 0.316 µM) of the same molecule?
Answer: 10.8%

Question: What about the viability, T/C (second compound 1 µM, first compound 1 µM) of the same molecule?
Answer: 1.16%

Question: What about the viability, T/C [13] of the same molecule?
Answer: 81.9%

Question: What about the viability, T/C [14] of the same molecule?
Answer: 56.5%

Question: What about the viability, T/C [15] of the same molecule?
Answer: 60.4%

Question: And the viability, T/C [16]?
Answer: 57.2%

Question: And the viability, T/C (second compound 3.16 µM, first compound 0.316 µM)?
Answer: 5.78%

Question: What about the viability, T/C (second compound 3.16 µM, first compound 1 µM) of the same molecule?
Answer: 0.65%

Question: And the viability, T/C [17]?
Answer: 93.9%

Question: And the viability, T/C [18]?
Answer: 93.1%

Question: What about the viability, T/C [19] of the same molecule?
Answer: 89%

Question: And the viability, T/C [20]?
Answer: 57.1%

Question: And the viability, T/C (second compound 10 µM, first compound 0.316 µM)?
Answer: 0.97%

Question: And the viability, T/C (second compound 10 µM, first compound 1 µM)?
Answer: 0.83%
